Results reported in publication PMC6121230 (International Journal of Molecular Sciences, 2018).

Key:
Settings in all cases: 50 mM Tris pH 8.0; lipid monolayer, interfacial binding (not a 1:1 site)
(His)6-VpPLD-Δ451-487 = system: (His)6-VpPLD-Δ451-487
VpPLD-(His)6-WT = system: VpPLD-(His)6-WT
(His)6-VpPLD-Δ469-487 = system: (His)6-VpPLD-Δ469-487
(His)6-VpPLD-WT [1] = system: (His)6-VpPLD-WT
(His)6-VpPLD-Δ434-487 = system: (His)6-VpPLD-Δ434-487
VpPLD-(His)6-Δ1-25 = system: VpPLD-(His)6-Δ1-25
VpPLD-(His)6-Δ1-34 = system: VpPLD-(His)6-Δ1-34
(His)6-VpPLD-WT [2] = system: (His)6-VpPLD-WT; remark: listed apart in the source

For CCCCCCCCCCCCCC(=O)OC[C@H](COP(=O)([O-])OCC[N+](C)(C)C)OC(=O)CCCCCCCCCCCCC [DMPC, 1,2-Dimyristoyl-sn-glycero-3-phosphocholine], the MIP ((His)6-VpPLD-Δ451-487) was 34.9 ± 3.7 mN m^-1, the MIP (VpPLD-(His)6-WT) was 37.4 ± 1.3 mN m^-1 and the MIP ((His)6-VpPLD-Δ469-487) was 29.8 ± 1.8 mN m^-1. The MIP ((His)6-VpPLD-WT [1]) was 29.6 ± 2.6 mN m^-1.
CCCCCCCCCCCCCC(=O)OC[C@H](COP(=O)(O)OC[C@H](N)C(=O)O)OC(=O)CCCCCCCCCCCCC [DMPS, 1,2-Dimyristoyl-sn-glycero-3-phospho-L-serine] was tested, and the MIP ((His)6-VpPLD-Δ451-487) was 36.4 ± 2.1 mN m^-1, the MIP ((His)6-VpPLD-Δ434-487) was 40.4 ± 4.6 mN m^-1 and the MIP (VpPLD-(His)6-WT) was 38.5 ± 2.7 mN m^-1. The MIP (VpPLD-(His)6-Δ1-25) was 30.4 ± 3.2 mN m^-1, the MIP (VpPLD-(His)6-Δ1-34) was 36.5 ± 2.7 mN m^-1 and the MIP ((His)6-VpPLD-WT [1]) was 34.8 ± 0.6 mN m^-1.
For CCCCCCCCCCCCCC(=O)OC[C@H](COP(=O)(O)OCC(O)CO)OC(=O)CCCCCCCCCCCCC (mixture of isomers) [DMPG, 1,2-Dimyristoyl-sn-glycero-3-phospho-rac-glyceol], the synergy factor a ((His)6-VpPLD-WT [2]) was 0.29 ± 0.03 and the MIP (VpPLD-(His)6-WT) was 26.8 ± 0.9 mN m^-1.
In the case of CCCCCCCCCCCCCC(=O)OC[C@H](COP(=O)(O)OCCN)OC(=O)CCCCCCCCCCCCC [DMPE, 1,2-Dimyristoyl-sn-glycero-3-phosphoethanolamine], the MIP ((His)6-VpPLD-Δ434-487) is reported as 45.1 ± 2.8 mN m^-1, the MIP (VpPLD-(His)6-WT) is reported as 29.8 ± 2.8 mN m^-1 and the MIP (VpPLD-(His)6-Δ1-25) is reported as 39.4 ± 6.2 mN m^-1. The MIP (VpPLD-(His)6-Δ1-34) was 47.8 ± 8.7 mN m^-1, the MIP ((His)6-VpPLD-Δ469-487) was 26.2 ± 2.7 mN m^-1 and the MIP ((His)6-VpPLD-WT [1]) was 32.8 ± 3.7 mN m^-1.
